Where two headings read alike, the source gives them in different places.
Assays:
[1] = system: P. falciparum 3D7 parasites; assay: P. falciparum 3D7 asexual stage LDH assay (72 h); format: cell-based, Plasmodium falciparum; details: for EC50: Plasmodium falciparum, 3D7, 72 h, means and SDs, three or more experiments; for fold decrease in Pf 3D7 activity relative to 17: ratio of EC50 to compound 17
Method: To establish the SAR, synthesized analogs were assessed against the asexual stage parasite (72 h) using LDH as a proxy for parasite growth inhibition. Cytotoxicity was monitored against the human HepG2 cell line using Cell TitreGlo as a metabolic marker for cell growth.
P. falciparum 3D7 Asexual Stage LDH Assay. This is a platform assay is routinely undertaken at the Walter and Eliza Hall Institute and details on the protocol has been previously published. Briefly, 10-point dilution series of the compounds were prepared in 384 well assay plates using an Echo555 (Labcyte). Appropriate volumes of 10 mM compound stocks were transferred into the assay plates such that the starting concentration was 1 μM, with a 1 in 3-fold dilution series. All wells were backfilled with DMSO to 40 nL such that this remained constant (0.1 % DMSO). The positive growth control was 0.1 % DMSO and the negative growth control was 100 nM chloroquine. The parasite inoculum (40 μL) was dispensed into plates containing compounds using a Multidrop Combi dispenser (Thermo Scientific). […] Following 72 h growth, plates were sealed with parafilm and frozen at −80 °C overnight. Plates were thawed at room temperature for at least 4 h prior to LDH activity being measured. […] Plates were shaken to ensure mixing and absorbance at 650 nm was measured in an EnVision (PerkinElmer) plate reader after 30 min of incubation at room temperature. […] The equation used is sigmoidal dose response (variable slope), Y = bottom + (top − bottom)/(1 + 10((logEC50 − X) × Hill Slope)).

[2] = Human HepG2 growth inhibition assay (Cell TitreGlo, 48 h); format: cell-based; details: human, HepG2 cells, HepG2 cell growth inhibition over 48 h
Method: To establish the SAR, synthesized analogs were assessed against the asexual stage parasite (72 h) using LDH as a proxy for parasite growth inhibition. Cytotoxicity was monitored against the human HepG2 cell line using Cell TitreGlo as a metabolic marker for cell growth. Cyt b inhibitors typically have high lipophilicity, and so calculated physicochemical properties were determined, while in vitro ADME was also collected on representative analogs to gauge their suitability for efficacy studies in a 4-day P. berghei model.
Human HepG2 Growth Inhibition Assay. This is a routine assay undertaken at the Walter and Eliza Hall Institute and the method has been previously published. HepG2 cells were cultured in Dulbeccos modified eagles medium (DMEM) supplemented with 10 % fetal calf serum (FCS), in a humidified incubator at 37 °C and 5 % CO2. Assay plates (Greiner #781098, 384 well, white, tissue culture treated) were prepared by transferring appropriate volumes of 10 mM compound stocks using an Echo555 (Labcyte) such that the starting concentration was 50 μM, with a 1:2-fold dilution series. All wells were backfilled with DMSO to […] such that this remained constant (0.5 % DMSO). The positive growth control was 0.5 % DMSO and the negative growth control was 10 μM Bortezomib. HepG2 cells were seeded with 1000 cells in 50 μL DMEM with 10 % FCS into each well of the assay plates using a Multidrop Combi dispenser (Thermo Scientific). Plates were incubated at 37 °C and 5 % CO2 for 48 h. Cytotoxicity was determined using Cell Titer Glo (Promega) and calculated as a percentage using DMSO as the positive growth control and 10 μM Bortezomib as a negative growth control. EC50 values were calculated by Dotmatics 5.3 and Spotfire 7.11.1 software using a nonlinear regression four-parameter fit analysis. The equation used is sigmoidal dose response (variable slope), Y = bottom + (top − bottom)/(1 + 10((logEC50 − X) × Hill Slope)).

[3] = LDH activity of P. falciparum 3D7 parasites over 72 h, read-out: Pf 3D7 EC50 (SD)

SMILES	EC50 [1, 3] [µM]	CC50 at 48 h [2] [µM]	fold decrease in Pf 3D7 activity relative to 17 [1]	EC50 ([1]; read-out: Pf 3D7 EC50 (SD), LDH activity of P. falciparum 3D7 parasites over 72 h) [µM]
O=C(NC1CC1)c1ccc(CN(Cc2cccc(C(F)(F)F)c2)C2CC2)cc1 [Compound 52]	0.16	> 40	–	–
NCCNC(=O)c1ccc(CN(Cc2ccc(Cl)cc2Cl)C2CC2)cc1 [Compound 36, 2-(4-((Cyclopropyl(2,4-dichlorobenzyl)amino)methyl)benzamido)ethan-1-aminium 2,2,2-trifluoroacetate]	> 10	–	–	–
O=C(NC1CC1)c1ccc(CN(Cc2cc(C(F)(F)F)cc(C(F)(F)F)c2)C2CC2)cc1 [Compound 84, 4-(((3,5-Bis(trifluoromethyl)benzyl) (cyclopropyl)amino)methyl)-N-cyclopropylbenzamide]	0.1	15	–	–
N#Cc1ccccc1CN(Cc1ccc(C(=O)NC2CC2)cc1)C1CC1 [Compound 60]	0.12	> 40	–	–
O=C(NC1CC1)c1ccc(CN(Cc2cccc(F)c2)C2CC2)cc1 [Compound 43]	0.24	> 40	–	–
O=C(NC1CC1)c1ncc(CN(Cc2ccccc2)C2CC2)s1 [Compound 106, 5-((Benzyl(cyclopropyl)amino)methyl)-N-cyclopropylthiazole-2-carboxamide]	> 10	–	–	–
Cc1cc(C)cc(CN(Cc2ccc(C(=O)NC3CC3)cc2)C2CC2)c1 [Compound 81]	0.19	> 40	–	–
CC(=O)Nc1ccc(CN(Cc2ccc(C(=O)NC3CC3)cc2)C2CC2)cc1 [Compound 67, 4-(((4-Acetamidobenzyl) (cyclopropyl)amino)methyl)-N-cyclopropylbenzamide]	> 10	–	–	–
CC(=O)c1cccc(CN(Cc2ccc(C(=O)NC3CC3)cc2)C2CC2)c1 [Compound 68]	0.11	> 40	–	–
N#Cc1ccc(CN(Cc2ccc(C(=O)NC3CC3)cc2)C2CC2)cc1 [Compound 62]	0.63	> 40	–	–
CCN(Cc1ccccc1)Cc1ccc(C(=O)NC2CC2)cc1 [Compound 20, 4-((Benzyl(ethyl)amino)methyl)-N-cyclopropylbenzamide]	0.7	> 40	4 fold	–
O=C(NC1CC1)c1ccc(CN(Cc2ccc(Cl)c(Cl)c2)C2CC2)cc1 [Compound 76]	0.21	> 40	–	–
O=C(NC1CC1)c1ccc(CN(Cc2ccncc2)C2CC2)cc1 [Compound 87]	9.2	> 40	–	–
Cc1ccc(CN(Cc2ccc(C(=O)NC3CC3)cc2)C2CC2)cc1 [Compound 51]	0.15	> 40	–	–
O=C(NC1CC1)c1ccc(CN(Cc2cccnc2)C2CC2)cc1 [Compound 86]	> 10	–	–	–
O=C(NC1CC1)c1ccc(CN(Cc2ccccc2Cl)C2CC2)cc1 [Compound 45, 4-(((2-Chlorobenzyl) (cyclopropyl)amino)methyl)-N-cyclopropylbenzamide]	0.29	> 40	–	–
CC(C)(C)N(Cc1ccccc1)Cc1ccc(C(=O)NC2CC2)cc1 [Compound 23, 4-((Benzyl(tert-butyl)amino)methyl)-N-cyclopropylbenzamide]	0.63	> 40	–	–
O=C(NC1CC1)c1ccc(CN(CC2CCCC2)C2CC2)cc1 [Compound 95]	0.51	> 40	–	–
O=C(NC1CC1)c1ccc(CN(Cc2ccc(CO)cc2)C2CC2)cc1 [Compound 71, N-Cyclopropyl-4-((cyclopropyl(4-(hydroxymethyl)benzyl)amino)methyl)benzamide]	0.17	> 40	–	–
CC(C)c1cccc(CN(Cc2ccc(C(=O)NC3CC3)cc2)C2CC2)c1 [Compound 54, N-Cyclopropyl-4-((cyclopropyl(3-isopropylbenzyl)amino)methyl)benzamide]	0.08	> 40	–	–

SMILES	EC50 [1, 3] [µM]	CC50 at 48 h [2] [µM]	fold decrease in Pf 3D7 activity relative to 17 [1]	EC50 ([1]; read-out: Pf 3D7 EC50 (SD), LDH activity of P. falciparum 3D7 parasites over 72 h) [µM]
O=C(NC1CC1)c1ccc(CN(Cc2ccc(Cl)cc2)C2CC2)cc1 [Compound 47, 4-(((4-Chlorobenzyl) (cyclopropyl)amino)methyl)-N-cyclopropylbenzamide]	0.21	> 40	–	–
O=C(NC1CC1)c1cccc(CN(Cc2ccccc2)C2CC2)c1 [Compound 28, 3-((Benzyl(cyclopropyl)amino)methyl)-N-cyclopropylbenzamide]	5.6	> 40	40 fold	–
CCC(C)N(Cc1ccccc1)Cc1ccc(C(=O)NC2CC2)cc1 (centres unmarked) [Compound 24, 4-((Benzyl(sec-butyl)amino)methyl)-N-cyclopropylbenzamide]	0.21	> 40	–	–
CC(=O)Nc1ccccc1CN(Cc1ccc(C(=O)NC2CC2)cc1)C1CC1 [Compound 65, 4-(((2-Acetamidobenzyl) (cyclopropyl)amino)methyl)-N-cyclopropylbenzamide]	7.4	> 40	–	–
O=C(NC1CC1)c1cnc(CN(Cc2ccccc2)C2CC2)s1 [Compound 105, 2-((Benzyl(cyclopropyl)amino)methyl)-N-cyclopropylthiazole-5-carboxamide]	2.4	> 40	–	–
COc1cccc(CN(Cc2ccc(C(=O)NC3CC3)cc2)C2CC2)c1 [Compound 58]	0.49	> 40	–	–
CC(=O)c1ccc(CN(Cc2ccc(C(=O)NC3CC3)cc2)C2CC2)cc1 [Compound 69]	0.9	> 40	–	–
Cc1cc(C)c(CN(Cc2ccc(C(=O)NC3CC3)cc2)C2CC2)c(C)c1 [Compound 82, N-Cyclopropyl-4-((cyclopropyl(2,4,6-trimethylbenzyl)amino)methyl)benzamide]	0.08	> 40	–	–
O=C(NC1CC1)c1ccc(CN(Cc2c(F)cc(F)cc2F)C2CC2)cc1 [Compound 75, N-Cyclopropyl-4-((cyclopropyl(2,4,6-trifluorobenzyl)amino)methyl)benzamide]	0.19	> 40	–	–
O=C(NC1CC1)c1ccc(CN(C(=O)c2ccccc2)C2CC2)cc1 [Compound 99, N-Cyclopropyl-N-(4-(cyclopropylcarbamoyl)benzyl)benzamide]	> 10	–	–	–
O=C(Nc1ccccc1)c1ccc(CN(Cc2ccc(Cl)cc2Cl)C2CC2)cc1 [Compound 40]	–	> 40	–	–
O=C(NC1CC1)c1ccc(CN(Cc2ccccc2)Cc2ccccc2)cc1 [Compound 27, N-Cyclopropyl-4-((dibenzylamino)methyl)benzamide]	–	> 40	–	–
O=C(NC1CC1)c1ccc(CNC2CC2)cc1 [Compound 88, N-cyclopropyl-4-((cyclopropylamino)methyl)benzamide]	> 10	–	–	–
CN(Cc1ccc(C(=O)NC2CC2)cc1)C1CC1 [Compound 89]	> 10	–	–	–
O=C(NC1CC1)c1ccc(C(=O)N(Cc2ccccc2)C2CC2)cc1 [Compound 100, N [4]-Benzyl-N^1,N [4]-dicyclopropyl-terephthalamide]	> 10	–	–	–
NC(=O)c1ccc(CN(Cc2ccc(Cl)cc2Cl)C2CC2)cc1 [Compound 29]	> 10	–	–	–
CC(C)CN(Cc1ccc(C(=O)NC2CC2)cc1)C1CC1 [Compound 92]	–	–	approximately 4 fold	0.54
O=C(NCC(F)(F)F)c1ccc(CN(Cc2ccc(Cl)cc2Cl)C2CC2)cc1 [Compound 34, 4-((Cyclopropyl(2,4-dichlorobenzyl)amino)methyl)-N-(2,2,2-trifluoroethyl)benzamide]	> 10	–	–	–
O=C(NC1CC1)c1ccc(CNCc2ccccc2)cc1 [Compound 18, 4-((Benzylamino)methyl)-N-cyclopropylbenzamide]	> 10	–	–	–
CC(=O)Nc1cccc(CN(Cc2ccc(C(=O)NC3CC3)cc2)C2CC2)c1 [Compound 66, 4-(((3-Acetamidobenzyl) (cyclopropyl)amino)methyl)-N-cyclopropylbenzamide]	> 10	–	–	–

— article PMC11609934, “Exploration and characterization of the antimalarial activity of cyclopropyl carboxamides that target the mitochondrial protein, cytochrome b” (European Journal of Medicinal Chemistry, 2024)
